Measured values: patent publication US20230085307A1, “PYRIDAZINONE COMPOUND AND HERBICIDE” (NISSAN CHEMICAL CORPORATION, priority 2019, published 2023)

Key:
green foxtail = assay: Test Example 5: herbicidal effect by foliage application, plastic box (Table 20, symbol G); format: in vivo, green foxtail (Setaria viridis); settings: foliage application, 320 g/ha
How it was run: (§1)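 Plants were sown into sterilized diluvial soil under about 1.5 cm cover and kept in a greenhouse at 25° C. to 30° C. Fourteen days on, foliage received an even spray of the diluted emulsion. Herbicidal or crop effect was judged three weeks afterwards.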

windgrass = assay: Test Example 4: herbicidal effect by soil treatment (Table 19, symbol L); format: in vivo, windgrass (Apera spica-venti); settings: amount of applied herbicide 320 g/ha
How it was run: (§2)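 Pre-emergence style soil spray: seeds under ~1.5 cm sterilized diluvial soil received a uniform coat of emulsion diluted to the predetermined herbicide amount. Greenhouse 25–30° C; readout at week three on previously defined criteria.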

Japanese bulrush = assay: Test Example 1: herbicidal activity, application before weed generation under submerged conditions (Table 16, symbol B); format: in vivo, Japanese bulrush (Schoenoplectus juncoides); settings: amount of applied herbicide 320 g/ha
How it was run: (§3)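 Emulsion formulation, water-diluted to set dose, was put onto the flooded surface (4 cm depth, alluvial soil) the same day weeds were sown and 2.5-leaf rice transplanted. After 3 weeks at 25-30 °C under glass, each species was rated 0 (≤5% kill) to 5 (≥90% kill).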

velvetleaf = assay: Test Example 4: herbicidal effect by soil treatment (Table 19, symbol M); format: in vivo, velvetleaf (Abutilon theophrasti); settings: amount of applied herbicide 320 g/ha
How it was run: as §2

barnyard grass = assay: Test Example 3: herbicidal effect by foliage application, Wagner pot (Table 18, symbol H); format: in vivo, barnyard grass (Echinochloa crus-galli)
How it was run: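 Plants were sown in alluvial soil held under 0.1–0.5 cm standing water and grown 14 days in a greenhouse at 25–30 °C. An emulsifiable formulation, water-diluted to the set dose, was then sprayed onto the foliage, and effects were scored three weeks later using previously defined criteria.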

chickweed = assay: Test Example 4: herbicidal effect by soil treatment (Table 19, symbol P); format: in vivo, common chickweed (Stellaria media); settings: amount of applied herbicide 320 g/ha
How it was run: as §2

redroot pigweed [1] = assay: Test Example 4: herbicidal effect by soil treatment (Table 19, symbol N); format: in vivo, redroot pigweed (Amaranthus retroflexus); settings: amount of applied herbicide 320 g/ha
How it was run: as §2

redroot pigweed [2] = assay: Test Example 5: herbicidal effect by foliage application, plastic box (Table 20, symbol N); format: in vivo, redroot pigweed (Amaranthus retroflexus); settings: foliage application, 320 g/ha
How it was run: as §1

southern crabgrass [3] = assay: Test Example 5: herbicidal effect by foliage application, plastic box (Table 20, symbol F); format: in vivo, southern crabgrass (Digitaria ciliaris); settings: foliage application, 320 g/ha
How it was run: as §1

wild oat = assay: Test Example 4: herbicidal effect by soil treatment (Table 19, symbol I); format: in vivo, wild oat (Avena fatua); settings: amount of applied herbicide 320 g/ha
How it was run: as §2

late watergrass [4] = assay: Test Example 1: herbicidal activity, application before weed generation under submerged conditions (Table 16, symbol A); format: in vivo, late watergrass (Echinochloa oryzicola); settings: amount of applied herbicide 320 g/ha
How it was run: as §3

oval-leafed pondweed [5] = assay: Test Example 2: herbicidal activity, application during weed generation under submerged conditions (Table 17, symbol C); format: in vivo, oval-leafed pondweed (Monochoria vaginalis)
How it was run: (§4)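 Herbicide emulsion, diluted with water to the chosen amount, is applied onto 4 cm floodwater over alluvial soil where the weeds were co-sown and raised at 25–30° C. Application timing: 1–2 leaves. Assessment: three weeks afterwards.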

persian speedwell = assay: Test Example 4: herbicidal effect by soil treatment (Table 19, symbol R); format: in vivo, Persian speedwell (Veronica persica); settings: amount of applied herbicide 320 g/ha
How it was run: as §2

southern crabgrass [6] = assay: Test Example 4: herbicidal effect by soil treatment (Table 19, symbol F); format: in vivo, southern crabgrass (Digitaria ciliaris); settings: amount of applied herbicide 320 g/ha
How it was run: as §2

late watergrass [7] = assay: Test Example 2: herbicidal activity, application during weed generation under submerged conditions (Table 17, symbol A); format: in vivo, late watergrass (Echinochloa oryzicola)
How it was run: as §4

oval-leafed pondweed [8] = assay: Test Example 1: herbicidal activity, application before weed generation under submerged conditions (Table 16, symbol C); format: in vivo, oval-leafed pondweed (Monochoria vaginalis); settings: amount of applied herbicide 320 g/ha
How it was run: as §3

[9] = evaluated 3 weeks after application
[10] = application during weed generation under submerged conditions, amount of applied herbicide 320 g/ha
[11] = AAH 320 g/ha, application during weed generation, submerged conditions

| Compound | L: windgrass, herbicidal effect grade (windgrass) | Herbicidal effect, B: Japanese bulrush (Japanese bulrush) | M: velvetleaf, herbicidal effect grade (velvetleaf) | P: chickweed, herbicidal effect grade (chickweed) | N: redroot pigweed, herbicidal effect grade (redroot pigweed [1]) | I: wild oat, herbicidal effect grade (wild oat) | Herbicidal effect, A: late watergrass (late watergrass [4]) | R: persian speedwell, herbicidal effect grade (persian speedwell) | F: southern crabgrass, herbicidal effect grade (southern crabgrass [6]) | Herbicidal effect, C: oval-leafed pondweed (oval-leafed pondweed [8]) | other results |
| --- | --- | --- | --- | --- | --- | --- | --- | --- | --- | --- | --- |
| Cc1ccc2oc(-c3ccc(SC(C)C)cc3)c(-c3c(O)c(C)nn(C)c3=O)c2c1 [9-059] | 0 (Herbicidal rate of 5% or less (almost no effect)) | 3 (Herbicidal rate of 40% or more and less than 70%) | 3 (Herbicidal rate of 40% or more and less than 70%) | 5 (Herbicidal rate of 90% or more (almost completely withered)) | 5 (Herbicidal rate of 90% or more (almost completely withered)) | 0 (Herbicidal rate of 5% or less (almost no effect)) | 5 (Herbicidal rate of 90% or more (almost completely withered)) | 5 (Herbicidal rate of 90% or more (almost completely withered)) | 0 (Herbicidal rate of 5% or less (almost no effect)) | 3 (Herbicidal rate of 40% or more and less than 70%) | G (green foxtail) herbicidal effect grade (green foxtail; [9]): 5 (Herbicidal rate of 90% or more (almost completely withered)); Herbicidal effect on H (barnyard grass), foliage application (barnyard grass; amount of applied herbicide 320 g/ha): 5 (Herbicidal rate of 90% or more (almost completely withered)); N (redroot pigweed) herbicidal effect grade (redroot pigweed [2]; [9]): 5 (Herbicidal rate of 90% or more (almost completely withered)); F (southern crabgrass) herbicidal effect grade (southern crabgrass [3]; [9]): 2 (Herbicidal rate of 20% or more and less than 40%); herbicidal effect grade, C: oval-leafed pondweed (oval-leafed pondweed [5]; [10]): 4 (Herbicidal rate of 70% or more and less than 90%); herbicidal effect grade, A: late watergrass (late watergrass [7]; [10]): 4 (Herbicidal rate of 70% or more and less than 90%) |
| COc1ccc2c(-c3c(O)c(Cl)nn(C)c3=O)c(-c3ccccc3OC)sc2c1 [Compound No. 3-088, 6-chloro-5-hydroxy-4-(6-methoxy-2-(2-methoxyphenyl)benzo[b]thiophen-3-yl)-2-methylpyridazin-3(2H)-one] | 0 (Herbicidal rate of 5% or less (almost no effect)) | 5 (Herbicidal rate of 90% or more (almost completely withered)) | 5 (Herbicidal rate of 90% or more (almost completely withered)) | 5 (Herbicidal rate of 90% or more (almost completely withered)) | 5 (Herbicidal rate of 90% or more (almost completely withered)) | 0 (Herbicidal rate of 5% or less (almost no effect)) | 5 (Herbicidal rate of 90% or more (almost completely withered)) | 4 (Herbicidal rate of 70% or more and less than 90%) | 4 (Herbicidal rate of 70% or more and less than 90%) | 5 (Herbicidal rate of 90% or more (almost completely withered)) | G: green foxtail, herbicidal effect grade (green foxtail; three weeks after application): 5 (Herbicidal rate of 90% or more (almost completely withered)); herbicidal effect on barnyard grass (H) (barnyard grass; 320 g/ha): 5 (Herbicidal rate of 90% or more (almost completely withered)); N: redroot pigweed, herbicidal effect grade (redroot pigweed [2]; three weeks after application): 4 (Herbicidal rate of 70% or more and less than 90%); F: southern crabgrass, herbicidal effect grade (southern crabgrass [3]; three weeks after application): 0 (Herbicidal rate of 5% or less (almost no effect)); herbicidal effect rating, C: oval-leafed pondweed (oval-leafed pondweed [5]; [11]): 3 (Herbicidal rate of 40% or more and less than 70%); herbicidal effect rating, A: late watergrass (late watergrass [7]; [11]): 3 (Herbicidal rate of 40% or more and less than 70%) |
